Measurements as given in article PMC4028696, “Development of a screen to identify selective small molecules active against patient-derived metastatic and chemoresistant breast cancer cells” (Breast Cancer Research : BCR, 2013).

Assays:
Type in all cases: cell-based, human
[1] = tested on: MCF-7 cells; assay: Dose response assay, ATPlite viability, four days; conditions: Homo sapiens, MCF7, 96 h; MCF-7, four days of treatment, ATP viability
Procedure: (§1) Cells were seeded in white 96-well plates (Costar, Tewksbury, MA, USA) in 100 μL of their respective media at varying densities to achieve 80% to 90% confluency after five days in culture. The compounds dissolved in DMSO were diluted in their corresponding media containing 2% FBS and an EP Motion 5075 (Eppendorf North America, Hauppauge, NY, USA) liquid handler was utilized to perform a serial dilution. […] After the cells were cultured for 24 hours, the media were aspirated and the cells were treated with the compounds and vehicle controls in triplicate. After four days of treatment, viability was determined utilizing the ATPlite 1step assay system (Perkin Elmer, Waltham, MA, USA) according to the manufacturer's instructions. Luminescence measurements were acquired utilizing a Perkin Elmer 2104 EnVision plate reader. Raw luminescence values were normalized to the DMSO vehicle control wells.

[2] = tested on: MDA-MB-231 cells; assay: Dose response assay, ATPlite viability, four days; conditions: Homo sapiens, 96 h; MDA-MB-231, four days of treatment, ATP viability
Procedure: as §1

[3] = tested on: PE1007070 cells; assay: Dose response assay, ATPlite viability, four days; conditions: Homo sapiens, 96 h, PE1007070, four days of treatment, ATP viability
Procedure: as §1

[4] = tested on: PE1008032 cells; assay: Dose response assay, ATPlite viability, four days; conditions: Homo sapiens, 96 h, PE1008032, four days of treatment, ATP viability
Procedure: as §1

[5] = tested on: PE904557a cells; assay: Dose response assay, ATPlite viability, four days; conditions: Homo sapiens, 96 h, four days of treatment, ATP viability, N/A = data could not be fitted
Procedure: as §1

[6] = tested on: T47D cells; assay: Dose response assay, ATPlite viability, four days; conditions: Homo sapiens, 96 h, four days of treatment, ATP viability
Procedure: as §1

[7] = tested on: hTERT-HMEC cells; assay: Dose response assay, ATPlite viability, four days
Procedure: as §1

[8] = tested on: MCF-10A cells; assay: BrdU proliferation and cell cycle analysis; conditions: 15 μM, 24 or 48 hours vs DMSO
Procedure: (§2) Cells were seeded in six-well plates (BD Falcon) in their respective media at different densities to attain 70% to 80% confluency at the end of the assay. In order to compare the proliferation rate of established cell lines compared to patient-derived cells, 10 μM of 5-bromo-2-deoxyuridine (BrdU) (Sigma) was added to the culture media for 30 minutes or 6 hours in triplicate. To determine the impact of C-6 on the cell cycle, cells were treated with 15 μM C-6 or 0.02% (v/v) DMSO vehicle in the corresponding media containing 2% FBS for 24 and 48 hours in triplicate followed by treatment with 10 μM BrdU for 30 minutes. Immediately following BrdU treatment, floating cells were collected and adherent cells were trypsinized. Floating and adherent cells were combined, washed with HBSS containing 2% FBS, fixed with 70% ethanol and stored overnight at -20°C. Cells were then treated with 2 M HCl containing 0.5% Triton X-100 (EMD Millipore) for 30 minutes at room temperature and were washed with 0.1 M sodium tetraborate (Sigma) at pH = 8.5. Next, cells were blocked with staining buffer, which consisted of 1% BSA, 0.5% Tween-20 (Fisher Scientific) in PBS, for five minutes and were stained with a mouse monoclonal BrdU antibody (Developmental Studies Hybridoma Bank, Iowa City, IA, USA) for one hour on ice. Cells were subsequently washed and stained with anti-mouse Alexa Fluor® 488 (Life Technologies) for 30 minutes on ice, washed, stained with 5 μg/mL of propidium iodide (EMD Millipore) and passed through a 70-μm cell strainer. Cell suspensions were analyzed using a FACScan flow cytometer and the resulting data were analyzed with Flow Jo software. The average ± SD of three wells for each condition was calculated.

[9] = tested on: MCF-7 cells; assay: BrdU proliferation and cell cycle analysis; conditions: MCF-7, 15 μM, 24 or 48 hours vs DMSO
Procedure: as §2

[10] = tested on: MDA-MB-231 cells; assay: BrdU proliferation and cell cycle analysis; conditions: MDA-MB-231, 15 μM, 24 or 48 hours vs DMSO
Procedure: as §2

[11] = tested on: T47D cells; assay: BrdU proliferation and cell cycle analysis; conditions: 15 μM, 24 or 48 hours vs DMSO
Procedure: as §2

[12] = tested on: PE904557a, PE900642a and PE1100025 cells; assay: Live/dead assay, three-dimensional Matrigel culture; conditions: 30 or 60 μM, five days
Procedure: For the three dimensional culture experiments, PE904557a, PE900642a and PE11000025 cells were seeded in a 24-well ultra low adhesion plate (Costar) at approximately 2 × 10^6 cells/mL in mammary epithelial cell growth medium (MEGM) complete media (Lonza, Basel Switzerland) and were cultured overnight. The resulting aggregates were separated from single cells by differential centrifugation. Next, 20 μL of growth factor reduced Matrigel (BD Biosciences) was added to each well of a black walled clear bottom 24-well plate (Greiner Bio-one) and was allowed to solidify to form a base layer. The aggregates were then suspended in Matrigel on ice and approximately 300 aggregates in 40 μL were added to each well. After the Matrigel solidified, modified M87 media was added to each well and the cells were cultured overnight. The media were subsequently aspirated and the cells were treated with 30 or 60 μM C-6 or the corresponding 0.06% (v/v) DMSO vehicle control. After culturing for five days, the viability and cytotoxicity were determined utilizing the Live/dead assay (Life Technologies) in the same manner as described above. Multiple Z-planes of the organoids were subsequently imaged utilizing an IX81 microscope (Olympus) running Slide Book 5.0 software (Intelligent Imaging Innovations).

[13] = tested on: LC3A/B-II; assay: Western blot for LC3A/B-II (autophagy); conditions: T47D cells, 30 μM, 48 hours
Procedure: Cells were lysed in cold radioimmunoprecipitation assay buffer (50 mM Tris HCl, 150 mM NaCl, 0.1% sodium dodecyl sulfate (SDS), 0.5% sodium deoxycholate, 1% Triton X-100, pH = 8.0) supplemented with protease inhibitor cocktail (Sigma), phosphatase inhibitor cocktail 2 (Sigma) and 1 mM dithiothreitol (DTT) (Sigma). The lysate was sonicated for 30 seconds using a 450 Sonifier (Branson Ultrasonics, Danbury, CT, USA) and was centrifuged at 14,000 RPM for five minutes at 4°C. The protein concentration was determined using the BCA protein assay kit (Peirce, Rockford, IL, USA) and the samples were boiled for five minutes with 4× SDS Laemmli buffer. Equal amounts of protein were resolved on SDS polyacrylamide gels and transferred to an Immobilon-FL PVDF membrane (EMD Millipore). Blots were blocked in Odyssey Blocking Buffer (LI-COR, Lincoln, NE, USA) for one hour at room temperature, stained with primary antibodies overnight at 4°C, washed, and stained with IR800CW or IR680 anti-mouse or rabbit secondary antibodies (LI-COR) for one hour at room temperature. Blots were imaged with the Odyssey Infrared Imaging System (LI-COR).

EC50 [1]: 11 µM | EC50 [2]: 10.5 µM | EC50 [6]: 8.29 µM
SMILES: COc1cc(OC)cc(C(C)c2ccc(NC(=O)OC(C)(C)C)cc2)c1 (stereo not shown) [C-6]
EC50 [3]: 24.4 µM | EC50 [4]: 33.3 µM | EC50 [5]: 75.7 µM | effect on viability [7]: did not significantly reduce the viability | cell cycle profile [8]: did not show a statistically significant difference | percentage of cells in G1/G0 [9]: increased | percentage of cells in G1/G0 [10]: increased | percentage of cells in G1/G0 [11]: increased | cell death in three-dimensional culture [12]: able to induce cell death | LC3A/B-II levels [13]: small increase
